According to patent publication US4640910A (Abbott Laboratories, priority 1985, dated 1987):
In brackets after ≈: the same amount, converted by molar mass. Read-outs that look alike come from different tables or passages of the source.

Columns and labels:
[1] = test system: indicated test organism; experiment: Acute mouse protection test; format: in vivo, female, Swiss albino mice; details: 1 and 5 hours post-infection, 7 days, * = highest level tested
[2] = test system: Staph. aureus; experiment: Extended mouse protection study; details: oral
[3] = test system: Strep. pyogenes; experiment: Extended mouse protection study; details: oral
[4] = test system: Strep. pneumoniae; experiment: Extended mouse protection study; details: oral
[5] = Stability and release of drug from prodrug in aqueous buffers pH 2 to 12 (dissolution apparatus, HPLC); format: physicochemical
Procedure: Samples of 2'-trimethylsilylerythromycin A and 2'-trimethylsilyl-6-O-methylerythromycin A were dissolved in 10-50 ml dimethyl sulfoxide or acetonitrile to give a solution containing 15-75 mg/ml. An aliquot containing 75 mg of prodrug was added to aqueous buffers ranging in pH from 2 to 12 to give a final volume equal to 500 ml. The buffered mixtures were stirred at 37° C. for at least 90 minutes. A standard dissolution test apparatus (Vanderkamp 600, Van-Kel Industries, Inc., 36 Meridian Road, Edisoin, N.J. 08820) was used to provide temperature and stirring rate control.
Aliquots were taken at 15, 30, 45, 60, 90, 120, 180, 240 and 360 minutes for analysis. Each sample was mixed with an internal standard, adjusted rapidly to pH 9 with 1M tricine buffer and extracted immediately with ethyl acetate. The organic extracts were evaporated and redissolved in a solution of 3% tetrahydrofuran in heptane. Samples of these solutions were injected using an autosampler (WISP 71)B, Waters Chromatography, Division of Millipore, 34 Maple Street, Milford, Mass. 01757). The prodrugs and drugs were separated by high performance liquid chromatography, detected at 225 nm using a spectrophotometer (Spectroflow 773 Absorbence Detector, Kratos Analytical Instruments), and were quantified with a digital integrator.

[6] = test system: Ps. cepacia 2961; experiment: Antimicrobial spectrum, agar dilution MIC; format: cell-based; details: Burkholderia cepacia; Ps. cepacia 2961; BHI agar, 35°-37° C., 20-24 hours; read-out: MIC
[7] = test system: Strep. pyogenes 930; experiment: Antimicrobial spectrum, agar dilution MIC; format: cell-based; details: Streptococcus pyogenes, BHI agar, 35°-37° C., 20-24 hours
[8] = test system: Ps. aeruginosa BMH10; experiment: Antimicrobial spectrum, agar dilution MIC; format: cell-based; details: Pseudomonas aeruginosa; Ps. aeruginosa BMH10; BHI agar, 35°-37° C., 20-24 hours; read-out: MIC
[9] = test system: Lactobacillus casei ATCC 7469; experiment: Antimicrobial spectrum, agar dilution MIC; format: cell-based; details: Lacticaseibacillus casei, ATCC7469
[10] = test system: Ps. aeruginosa K799/WT; experiment: Antimicrobial spectrum, agar dilution MIC; format: cell-based; details: Pseudomonas aeruginosa, BHI agar, 35°-37° C., 20-24 hours
[11] = test system: Ps. aeruginosa A5007; experiment: Antimicrobial spectrum, agar dilution MIC; format: cell-based; details: Pseudomonas aeruginosa, BHI agar, 35°-37° C., 20-24 hours
[12] = test system: Providencia stuartii CMX 640; experiment: Antimicrobial spectrum, agar dilution MIC; format: cell-based; details: CMX640; Providencia stuartii CMX 640; BHI agar, 35°-37° C., 20-24 hours; read-out: MIC
[13] = test system: Enterobact. aerogenes ATCC 13048; experiment: Antimicrobial spectrum, agar dilution MIC; format: cell-based; details: Enterobact. aerogenes ATCC 13048; BHI agar, 35°-37° C., 20-24 hours; read-out: MIC
[14] = test system: Micrococcus luteus 9341; experiment: Antimicrobial spectrum, agar dilution MIC; format: cell-based; details: Micrococcus luteus, 9341
[15] = test system: Staph. aureus A 5177; experiment: Antimicrobial spectrum, agar dilution MIC; format: cell-based; details: Staphylococcus aureus, A5177; Staph. aureus A 5177; BHI agar, 35°-37° C., 20-24 hours; read-out: MIC
[16] = Mus musculus, po, 168 h, oral administration, read-out: ED50
[17] = Mus musculus, sc, 168 h, subcutaneous administration
[18] = carboxymethylcellulose with milk (reduces gastric acid secretion)
[19] = phosphate buffer solution with milk (reduces gastric acid secretion)
[20] = Mus musculus, po, 168 h, oral administration
[21] = Mus musculus, sc, 168 h, subcutaneous administration, read-out: ED50

Structure (SMILES): CC[C@H]1OC(=O)[C@H](C)[C@@H](O[C@H]2C[C@@](C)(OC)[C@@H](O[Si](C)(C)C)[C@H](C)O2)[C@H](C)[C@@H](O[C@@H]2O[C@H](C)C[C@H](N(C)C)[C@H]2O)[C@](C)(OC)C[C@@H](C)C(=O)[C@H](C)[C@@H](O[Si](C)(C)C)[C@]1(C)O [Example 10, 4"-11-bis(O-TMS)-6-O-methyl erythromycin A]
- ED50 [1, 16]: 51.8 mg/kg
- ED50 [1, 17]: 40 mg/kg

Structure (SMILES): CC[C@H]1OC(=O)[C@H](C)[C@@H](O[C@H]2C[C@@](C)(OC)[C@@H](O)[C@H](C)O2)[C@H](C)[C@@H](O[C@@H]2O[C@H](C)C[C@H](N(C)C)[C@H]2O)[C@](C)(OC)C[C@@H](C)C(=O)[C@H](C)[C@@H](O)[C@]1(C)O [6-O-methyl erythromycin A]
- ED50 ([2]; carboxymethylcellulose): 25.0 mg/kg/day
- ED50 ([2]; phosphate buffer solution): 27.2 mg/kg/day
- ED50 [3, 18]: 5.3 mg/kg/day
- ED50 ([3]; phosphate buffer solution): 5.9 mg/kg/day
- ED50 [3, 19]: 11.1 mg/kg/day
- ED50 ([4]; carboxymethylcellulose): 2.4 mg/kg/day
- ED50 [4, 18]: 2.2 mg/kg/day
- ED50 ([4]; phosphate buffer solution): 1.6 mg/kg/day
- ED50 [4, 19]: 1.6 mg/kg/day

Structure (SMILES): CC[C@H]1OC(=O)[C@H](C)[C@@H](O[C@H]2C[C@@](C)(OC)[C@@H](O)[C@H](C)O2)[C@H](C)[C@@H](O[C@@H]2O[C@H](C)C[C@H](N(C)C)[C@H]2O[Si](C)(C)C)[C@](C)(O)C[C@@H](C)C(=O)[C@H](C)[C@@H](O)[C@]1(C)O [Example 2, 2'-O-Trimethylsilyl Erythromycin A]
- degradation ([5]; pH 2 and 4, 37° C.): degraded to anhydroerythromycin A
- anhydroerythromycin formed ([5]; pH 6, 37° C.): significant amounts
- erythromycin A detected ([5]; pH 6, 37° C.): A very small amount
- erythromycin formed ([5]; pH 8, 10 or 12, 37° C.): No erythromycin was formed

Structure (SMILES): CC[C@H]1OC(=O)[C@H](C)[C@@H](O[C@H]2C[C@@](C)(OC)[C@@H](O)[C@H](C)O2)[C@H](C)[C@@H](O[C@@H]2O[C@H](C)C[C@H](N(C)C)[C@H]2O[Si](C)(C)C)[C@](C)(O)C[C@@H](C)C(=NO[Si](C)(C)C)[C@H](C)[C@@H](O)[C@]1(C)O [Example 11, 2',9-bis(O-trimethylsilyl)-Erythromycin A-9-oxime]
- ED50 [1, 20]: 150 mg/kg
- ED50 [1, 17]: 40 mg/kg

Structure (SMILES): CC[C@H]1OC(=O)[C@H](C)[C@@H](O[C@H]2C[C@@](C)(OC)[C@@H](O[Si](C)(C)C)[C@H](C)O2)[C@H](C)[C@@H](O[C@@H]2O[C@H](C)C[C@H](N(C)C)[C@H]2O)[C@](C)(O)C[C@@H](C)C(=O)[C@H](C)[C@@H](O)[C@]1(C)O [Example 8, 4"-O-trimethylsilyl erythromycin A]
- ED50 [1, 16]: 99.7 mg/kg
- ED50 [1, 21]: 16 mg/kg
- ED50 ([1]; oral administration, listed as 4"-O--TMS Ery A, 10080 min): 61.5 mg/kg/day

Structure (SMILES): CC[C@H]1OC(=O)[C@H](C)[C@@H](O[C@H]2C[C@@](C)(OC)[C@@H](O)[C@H](C)O2)[C@H](C)[C@@H](O[C@@H]2O[C@H](C)C[C@H](N(C)C)[C@H]2O)[C@](C)(O)C[C@@H](C)C(=O)[C@H](C)[C@@H](O)[C@]1(C)O [Erythromycin A, reference compound]
- MIC [6]: 100 µg/mL (≈ 136 µM)
- MIC [7]: 100 µg/mL (≈ 136 µM)
- MIC [8]: 100 µg/mL (≈ 136 µM)
- ED50 [1, 16]: 75.7 mg/kg
- ED50 [1, 21]: 10.9 mg/kg
- ED50 ([1]; oral administration, 10080 min): 48.8 mg/kg/day
- MIC [9]: 0.05 µg/mL (≈ 0.0681 µM)
- MIC [10]: 100 µg/mL (≈ 136 µM)
- ED50 ([2]; carboxymethylcellulose): 86.0 mg/kg/day
- ED50 ([2]; phosphate buffer solution): 75.7 mg/kg/day
- MIC [11]: 100 µg/mL (≈ 136 µM)
- MIC [12]: 100 µg/mL (≈ 136 µM)
- ED50 ([3]; phosphate buffer solution): 37.2 mg/kg/day
- MIC [13]: 100 µg/mL (≈ 136 µM)
- MIC [14]: 0.02 µg/mL (≈ 0.0273 µM)
- MIC [15]: 0.78 µg/mL (≈ 1.06 µM)

Structure (SMILES): CC[C@H]1OC(=O)[C@H](C)[C@@H](O[C@H]2C[C@@](C)(OC)[C@@H](O[Si](C)(C)C)[C@H](C)O2)[C@H](C)[C@@H](O[C@@H]2O[C@H](C)C[C@H](N(C)C)[C@H]2OC(C)=O)[C@](C)(O)C[C@@H](C)C(=O)[C@H](C)[C@@H](O[Si](C)(C)C)[C@]1(C)O [Example 12, 2'-Acetyl-4",11-bis (-O-TMS)-Erythromycin A]
- ED50 [1, 20]: 250 mg/kg
- ED50 [1, 17]: 40 mg/kg
